Experimental data reported in the supplement of paper PMC10307832.

Tests used:
Assay in all cases: relative viability (nuclei count vs DMSO), 5 days (fraction); higher = more cells survive
[1] = compound: CC1=NN=C(O1)C2=NN=C(C=C2)N3CCC(CC3)OC4=C(C=CC(=C4)F)Cl + CC(=O)c1c(C)c2cnc(Nc3ccc(N4CCNCC4)cn3)nc2n(C2CCCC2)c1=O [Palbociclib] (partner 0.5 µM)
Outline: (§1)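 Medians of duplicate plates are given as relative viability. That measure is the nuclei count in treated wells divided by the count in vehicle wells. Counts were taken on 4× images of lung cancer cell lines in 1536-well plates, 5 days after pin-tool dosing the day after seeding with one drug alone or a fixed anchor-drug dose plus five library-drug doses (not always all listed) in √10 steps.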

[2] = compound: CC1=NN=C(O1)C2=NN=C(C=C2)N3CCC(CC3)OC4=C(C=CC(=C4)F)Cl + Cc1cc(Nc2cc(N3CCN(C)CC3)nc(Sc3ccc(NC(=O)C4CC4)cc3)n2)n[nH]1 [Tozasertib] (partner 0.1 µM)
Outline: as §1

[3] = compound: CC1=NN=C(O1)C2=NN=C(C=C2)N3CCC(CC3)OC4=C(C=CC(=C4)F)Cl + Cc1nc(NC(=O)N2CCC[C@H]2C(N)=O)sc1-c1ccnc(C(C)(C)C(F)(F)F)c1 [Alpelisib] (partner 2 µM)
Outline: as §1

[4] = compound: CC1=NN=C(O1)C2=NN=C(C=C2)N3CCC(CC3)OC4=C(C=CC(=C4)F)Cl + N=C(N)NC(=N)NCCc1ccccc1 [Phenformin] (partner 250 µM)
Outline: as §1

Cell Line | relative viability ([1]; first compound 0.253 µM) | relative viability ([1]; first compound 0.8 µM) | relative viability ([1]; first compound 2.53 µM) | relative viability ([1]; first compound 8 µM) | relative viability ([2]; first compound 0.253 µM) | relative viability ([2]; first compound 0.8 µM) | relative viability ([2]; first compound 2.53 µM) | relative viability ([2]; first compound 8 µM) | relative viability ([3]; first compound 0.253 µM) | relative viability ([3]; first compound 0.8 µM) | relative viability ([3]; first compound 2.53 µM) | relative viability ([3]; first compound 8 µM) | relative viability ([4]; first compound 0.253 µM) | relative viability ([4]; first compound 0.8 µM) | relative viability ([4]; first compound 2.53 µM) | relative viability ([4]; first compound 8 µM)
201T | 0.219 | 0.251 | 0.221 | 0.21 | 0.421 | 0.432 | 0.427 | 0.421 | 0.594 | 0.614 | 0.578 | 0.563 | 0.38 | 0.436 | 0.46 | 0.443
A549 |  |  |  |  |  |  |  |  | 0.573 | 0.666 | 0.581 | 0.463 | 0.158 | 0.0878 | 0.14 | 0.147
A-427 | 0.567 | 0.566 | 0.584 | 0.564 | 0.23 |  | 0.168 | 0.168 | 1.05 |  | 1.02 | 0.882 | 0.285 |  | 0.278 | 0.258
ABC-1 | 0.411 | 0.271 | 0.287 | 0.28 | 0.17 | 0.193 | 0.178 | 0.177 | 0.729 | 0.567 | 0.568 | 0.642 | 0.197 | 0.224 | 0.291 | 0.276
BEN | 0.452 | 0.448 | 0.487 | 0.52 | 0.505 | 0.423 | 0.454 | 0.46 | 0.767 | 0.899 | 1.05 | 0.901 | 0.25 | 0.265 | 0.267 | 0.301
CAL-12T | 0.441 | 0.485 | 0.43 | 0.336 | 0.26 | 0.241 | 0.227 | 0.216 | 1.14 | 0.871 | 0.989 | 0.877 | 0.585 | 0.519 | 0.488 | 0.416
COR-L23 | 0.27 | 0.24 | 0.241 | 0.247 | 0.166 | 0.131 | 0.145 | 0.121 | 0.591 | 0.657 | 0.574 | 0.552 | 0.423 | 0.385 | 0.425 | 0.363
COR-L 105 | 0.403 | 0.477 | 0.405 | 0.495 | 0.328 | 0.375 | 0.365 | 0.427 | 0.925 | 1.03 | 1.12 | 1.29 | 0.513 | 0.475 | 0.568 | 0.642
Calu-6 |  |  |  |  |  |  |  |  | 0.808 | 0.864 | 0.895 | 0.846 |  |  |  | 
ChaGo-K-1 | 0.625 | 0.502 | 0.57 | 0.553 | 0.258 | 0.226 | 0.226 | 0.214 |  |  |  |  | 0.471 | 0.373 | 0.545 | 0.381
EBC-1 |  |  |  |  |  |  |  |  | 0.752 | 0.908 | 0.756 | 0.74 |  |  |  | 
EKVX | 0.282 | 0.257 | 0.286 | 0.292 | 0.258 | 0.15 | 0.196 | 0.196 | 0.446 | 0.323 | 0.363 | 0.462 | 0.211 | 0.223 | 0.236 | 0.227
EMC-BAC-2 | 0.492 | 0.513 | 0.502 | 0.513 | 0.314 | 0.274 | 0.283 | 0.284 | 0.69 | 0.649 | 0.695 | 0.581 | 0.594 | 0.479 | 0.495 | 0.517
EPLC-272H | 0.281 | 0.314 | 0.277 | 0.34 | 0.36 | 0.228 | 0.184 | 0.158 | 0.925 |  | 1.14 | 0.917 | 0.315 | 0.279 | 0.309 | 0.294
H3255 | 0.296 | 0.305 | 0.309 | 0.321 | 0.619 | 0.489 | 0.589 | 0.542 | 0.562 | 0.614 | 0.633 | 0.571 | 0.372 | 0.316 | 0.354 | 0.398
HARA | 0.233 | 0.25 | 0.235 | 0.222 | 0.0993 | 0.0831 | 0.0894 | 0.0804 | 0.54 | 0.479 | 0.516 | 0.481 | 0.306 | 0.211 | 0.334 | 0.266
HCC-15 | 0.427 | 0.392 | 0.414 | 0.418 | 0.281 | 0.29 | 0.274 | 0.278 | 0.661 | 0.578 | 0.582 | 0.584 | 0.441 | 0.396 | 0.427 | 0.428
HCC-44 | 0.366 | 0.434 | 0.412 | 0.355 | 0.545 | 0.564 | 0.513 | 0.487 | 0.491 | 0.573 | 0.56 | 0.474 | 0.267 | 0.167 | 0.178 | 0.157
HCC-78 | 0.454 | 0.366 | 0.473 | 0.457 | 0.376 | 0.319 | 0.266 | 0.288 | 0.318 | 0.309 | 0.308 | 0.321 | 0.619 | 0.59 | 0.541 | 0.497
HCC-366 | 0.063 | 0.124 | 0.132 | 0.112 | 0.076 | 0.0654 | 0.0544 | 0.0419 | 0.205 | 0.212 | 0.284 | 0.323 | 0.286 | 0.285 | 0.309 | 0.288
HCC-827 | 0.317 | 0.283 | 0.355 | 0.3 | 0.174 | 0.161 | 0.171 | 0.144 | 0.492 | 0.358 | 0.492 | 0.476 | 0.388 | 0.258 | 0.354 | 0.36

Cell Line | relative viability ([1]; first compound 0.253 µM) | relative viability ([1]; first compound 0.8 µM) | relative viability ([1]; first compound 2.53 µM) | relative viability ([1]; first compound 8 µM) | relative viability ([2]; first compound 0.253 µM) | relative viability ([2]; first compound 0.8 µM) | relative viability ([2]; first compound 2.53 µM) | relative viability ([2]; first compound 8 µM) | relative viability ([3]; first compound 0.253 µM) | relative viability ([3]; first compound 0.8 µM) | relative viability ([3]; first compound 2.53 µM) | relative viability ([3]; first compound 8 µM) | relative viability ([4]; first compound 0.253 µM) | relative viability ([4]; first compound 0.8 µM) | relative viability ([4]; first compound 2.53 µM) | relative viability ([4]; first compound 8 µM)
HOP-62 | 0.351 | 0.356 | 0.265 | 0.212 | 0.296 | 0.288 | 0.205 | 0.222 | 0.791 |  | 0.609 | 0.505 | 0.592 | 0.352 | 0.411 | 0.349
IA-LM |  |  |  |  |  |  |  |  | 0.156 | 0.157 | 0.137 | 0.157 |  |  |  | 
LC-2-ad | 0.215 | 0.216 | 0.239 | 0.202 | 0.38 | 0.354 | 0.359 | 0.344 | 0.429 | 0.371 | 0.382 | 0.341 | 0.496 | 0.489 | 0.51 | 0.472
LCLC-97TM1 | 0.184 |  | 0.164 | 0.19 | 0.182 | 0.137 | 0.172 | 0.207 | 0.28 |  | 0.237 | 0.292 | 0.501 | 0.396 | 0.427 | 0.437
LCLC-103H | 0.343 | 0.32 | 0.321 | 0.343 | 0.411 | 0.362 | 0.356 | 0.324 | 0.792 | 0.946 | 0.775 | 0.776 | 0.36 | 0.344 | 0.335 | 0.225
LK-2 | 0.739 | 0.818 | 0.772 | 0.614 | 0.171 | 0.176 | 0.176 | 0.134 | 1.03 | 1.01 | 1.17 | 1.23 | 0.576 | 0.433 | 0.661 | 0.38
LOU-NH91 |  | 0.535 | 0.478 | 0.632 | 0.585 | 0.587 | 0.664 | 0.677 |  | 0.649 | 0.713 | 0.726 | 0.64 | 0.598 | 0.69 | 0.679
LU99A | 0.402 | 0.484 | 0.443 | 0.418 | 0.279 | 0.271 | 0.268 | 0.287 | 0.547 | 0.526 | 0.559 | 0.495 | 0.885 | 0.822 | 0.821 | 0.71
LXF-289 | 0.524 | 0.549 | 0.531 | 0.458 | 0.181 | 0.141 | 0.179 | 0.131 | 0.783 | 0.789 | 0.744 | 0.67 | 0.509 | 0.393 | 0.504 | 0.465
NCI-H23 | 0.44 | 0.442 | 0.466 | 0.454 | 0.312 |  | 0.275 | 0.46 | 0.635 |  | 0.663 | 0.822 | 0.829 |  | 0.729 | 0.709
NCI-H522 | 1.1 | 1.01 | 0.65 | 1.05 | 0.576 | 0.578 | 0.558 | 0.534 |  |  |  |  | 0.679 | 0.632 | 0.855 | 0.526
NCI-H596 |  |  |  |  | 0.966 | 0.716 | 0.862 | 0.826 |  | 0.535 | 0.444 | 0.391 | 0.648 | 0.611 | 0.697 | 0.525
NCI-H1299 |  |  |  |  |  |  |  |  | 0.939 | 0.877 | 0.971 | 0.868 |  |  |  | 
NCI-H1563 |  |  |  |  |  |  |  |  | 1 | 0.952 | 0.999 | 1.09 | 0.646 | 0.659 | 0.612 | 0.641
NCI-H1648 | 0.258 | 0.278 | 0.263 | 0.244 | 0.242 | 0.325 | 0.293 | 0.344 |  |  |  |  |  |  |  | 
NCI-H1650 | 0.253 | 0.334 | 0.3 | 0.292 |  | 0.357 | 0.361 | 0.235 |  |  |  |  |  | 0.403 | 0.445 | 0.453
NCI-H1703 |  |  |  |  |  |  |  |  | 0.313 | 0.388 | 0.337 | 0.395 |  |  |  | 
NCI-H1792 | 0.358 | 0.502 | 0.449 | 0.474 |  |  |  |  | 0.397 | 0.432 | 0.264 | 0.448 | 0.294 | 0.416 | 0.264 | 0.384
NCI-H2342 | 0.478 | 0.491 | 0.458 | 0.417 | 0.356 | 0.411 | 0.417 | 0.404 |  |  |  |  | 0.474 | 0.503 | 0.492 | 0.362
SW 900 |  | 0.574 | 0.504 | 0.463 |  |  | 0.415 | 0.477 |  |  |  |  |  |  | 0.827 | 0.562
